{"source": "patent US20080009418A1", "about": "“Selective Inhibitors” (Alchemia LTD., priority 2004, published 2008)", "key": {"Human μ-opioid (MOP)": {"biological_target": "T1, Human μ-opioid (MOP) (Homo sapiens, UniProt P35372)", "T1 construct": "purchased Perkin Elmer Biosignal", "T1 sequence (P35372 whole entry)": "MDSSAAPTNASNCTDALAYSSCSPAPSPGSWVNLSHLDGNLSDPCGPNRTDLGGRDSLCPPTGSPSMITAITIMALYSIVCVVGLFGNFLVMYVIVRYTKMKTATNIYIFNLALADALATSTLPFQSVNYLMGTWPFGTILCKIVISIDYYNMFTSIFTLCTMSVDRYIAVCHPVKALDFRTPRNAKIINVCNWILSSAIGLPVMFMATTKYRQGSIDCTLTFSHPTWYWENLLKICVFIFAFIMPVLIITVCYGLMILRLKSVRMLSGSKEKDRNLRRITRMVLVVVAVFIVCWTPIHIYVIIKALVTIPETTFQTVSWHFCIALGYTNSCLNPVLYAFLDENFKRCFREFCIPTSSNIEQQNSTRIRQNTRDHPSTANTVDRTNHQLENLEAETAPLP", "experiment": "Radioligand binding, human μ-opioid (MOP) membranes, FlashPlate, [3H]-Naloxone", "conditions": "compound at 10 μM, [3H]-Naloxone", "method_in_brief": "(§1)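 Cloned human receptor membranes were coated onto FlashPlate wells and incubated with radioligand and compound (added from a 0.5 mM DMSO daughter plate) for 1 hour at room temperature in the dark. Scintillation counting gave percent inhibition, with DMSO defining total and reference ligand defining non-specific binding.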"}, "Human δ-opioid (DOP)": {"biological_target": "T2, Human δ-opioid (DOP) (Homo sapiens, UniProt P41143)", "T2 construct": "purchased Perkin Elmer Biosignal", "T2 sequence (P41143 whole entry)": "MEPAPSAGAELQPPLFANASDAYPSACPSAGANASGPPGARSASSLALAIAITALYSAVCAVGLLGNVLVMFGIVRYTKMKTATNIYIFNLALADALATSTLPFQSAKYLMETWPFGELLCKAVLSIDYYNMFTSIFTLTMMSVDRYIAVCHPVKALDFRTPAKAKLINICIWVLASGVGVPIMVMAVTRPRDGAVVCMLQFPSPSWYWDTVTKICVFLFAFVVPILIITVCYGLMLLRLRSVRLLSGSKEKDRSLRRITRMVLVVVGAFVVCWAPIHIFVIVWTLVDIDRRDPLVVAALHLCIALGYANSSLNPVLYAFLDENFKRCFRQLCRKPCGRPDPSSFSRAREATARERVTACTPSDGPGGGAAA", "experiment": "Radioligand binding, human δ-opioid (DOP) membranes, FlashPlate, [3H]-Bremazocine", "conditions": "compound at 10 μM, [3H]-Bremazocine", "method_in_brief": "as §1"}, "Human κ-Opioid (KOP)": {"biological_target": "T3, Human κ-Opioid (KOP) (Homo sapiens, UniProt P41145)", "T3 construct": "purchased Perkin Elmer Biosignal", "T3 sequence (P41145 whole entry)": "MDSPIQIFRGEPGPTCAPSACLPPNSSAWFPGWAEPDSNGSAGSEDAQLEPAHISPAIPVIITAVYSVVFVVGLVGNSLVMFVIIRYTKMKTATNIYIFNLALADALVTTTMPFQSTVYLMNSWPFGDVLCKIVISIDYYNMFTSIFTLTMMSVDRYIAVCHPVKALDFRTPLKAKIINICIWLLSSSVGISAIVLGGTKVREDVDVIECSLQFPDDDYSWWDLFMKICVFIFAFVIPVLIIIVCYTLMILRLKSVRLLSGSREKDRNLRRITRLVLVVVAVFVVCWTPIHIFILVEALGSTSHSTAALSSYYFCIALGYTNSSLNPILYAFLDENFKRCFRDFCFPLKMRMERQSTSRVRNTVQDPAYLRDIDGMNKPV", "experiment": "Radioligand binding, human κ-opioid (KOP) membranes, filtration, [3H]-Diprenorphine", "conditions": "compound at 10 μM, [3H]-Diprenorphine", "method_in_brief": "(§2)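 Membranes from cloned human receptors were incubated with compound and radioligand for 1 hour at room temperature. Bound ligand was collected on 0.3% PEI-soaked filters, washed with cold 50 mM Tris-HCl pH 7.4, and counted by scintillation. Percent inhibition was computed against DMSO totals and reference-ligand nonspecific wells.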"}, "[1]": {"biological_target": "T4, Human melanin-concentrating hormone (MCH1) (Homo sapiens, UniProt Q99705)", "T4 construct": "purchased Perkin Elmer Biosignal", "T4 sequence (Q99705 whole entry)": "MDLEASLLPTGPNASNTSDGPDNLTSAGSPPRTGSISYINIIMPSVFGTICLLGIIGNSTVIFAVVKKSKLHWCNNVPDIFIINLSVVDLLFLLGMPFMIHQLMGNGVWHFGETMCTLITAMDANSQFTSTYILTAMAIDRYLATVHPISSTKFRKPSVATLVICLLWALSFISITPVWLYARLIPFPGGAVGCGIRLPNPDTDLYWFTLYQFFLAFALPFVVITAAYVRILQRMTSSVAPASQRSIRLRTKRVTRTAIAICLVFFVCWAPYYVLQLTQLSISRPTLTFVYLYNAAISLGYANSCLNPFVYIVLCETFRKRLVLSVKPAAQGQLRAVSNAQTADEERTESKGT", "experiment": "Radioligand binding, human melanin-concentrating hormone MCH1 membranes, FlashPlate, [125I]-S36057", "conditions": "compound at 10 μM", "method_in_brief": "as §1"}, "[2]": {"biological_target": "T5, Human neuropeptide Y (NPY-Y1) (Homo sapiens, UniProt P25929)", "T5 construct": "purchased Perkin Elmer Biosignal", "T5 sequence (P25929 1-384)": "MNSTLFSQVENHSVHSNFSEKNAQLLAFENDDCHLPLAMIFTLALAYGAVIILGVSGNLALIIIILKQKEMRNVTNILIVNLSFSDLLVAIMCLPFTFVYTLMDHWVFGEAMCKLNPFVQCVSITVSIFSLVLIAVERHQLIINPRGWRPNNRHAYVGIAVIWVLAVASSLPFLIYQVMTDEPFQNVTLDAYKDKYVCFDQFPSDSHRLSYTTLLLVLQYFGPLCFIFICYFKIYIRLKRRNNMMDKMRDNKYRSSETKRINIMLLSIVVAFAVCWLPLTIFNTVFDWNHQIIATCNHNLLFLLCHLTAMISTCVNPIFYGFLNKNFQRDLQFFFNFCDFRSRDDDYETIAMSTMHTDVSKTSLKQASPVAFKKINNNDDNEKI", "experiment": "Radioligand binding, human neuropeptide Y NPY-Y1 membranes, FlashPlate, [125I]-PYY", "conditions": "compound at 10 μM, [125I]-PYY", "method_in_brief": "as §1"}, "Human Melanocortin (MC4)": {"biological_target": "T6, Human Melanocortin (MC4) (Homo sapiens, UniProt P32245)", "T6 construct": "purchased Perkin Elmer Biosignal", "T6 sequence (P32245 whole entry)": "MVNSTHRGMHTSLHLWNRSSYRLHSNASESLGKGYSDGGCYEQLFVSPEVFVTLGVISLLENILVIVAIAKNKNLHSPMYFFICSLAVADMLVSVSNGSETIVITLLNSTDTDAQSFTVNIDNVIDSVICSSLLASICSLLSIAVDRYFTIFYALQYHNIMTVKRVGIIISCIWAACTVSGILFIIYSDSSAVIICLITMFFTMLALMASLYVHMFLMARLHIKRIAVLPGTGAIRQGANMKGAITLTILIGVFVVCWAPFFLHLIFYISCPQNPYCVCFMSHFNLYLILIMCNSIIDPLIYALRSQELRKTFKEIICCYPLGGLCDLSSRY", "experiment": "Radioligand binding, human melanocortin MC4 membranes, FlashPlate, [125I]-NDP-αMSH", "conditions": "compound at 10 μM, [125I]-NDP-αMSH", "method_in_brief": "as §1"}, "Human melanocortin (MC5)": {"biological_target": "T7, Human melanocortin (MC5) (Homo sapiens, UniProt P33032)", "T7 construct": "purchased Perkin Elmer Biosignal", "T7 sequence (P33032 whole entry)": "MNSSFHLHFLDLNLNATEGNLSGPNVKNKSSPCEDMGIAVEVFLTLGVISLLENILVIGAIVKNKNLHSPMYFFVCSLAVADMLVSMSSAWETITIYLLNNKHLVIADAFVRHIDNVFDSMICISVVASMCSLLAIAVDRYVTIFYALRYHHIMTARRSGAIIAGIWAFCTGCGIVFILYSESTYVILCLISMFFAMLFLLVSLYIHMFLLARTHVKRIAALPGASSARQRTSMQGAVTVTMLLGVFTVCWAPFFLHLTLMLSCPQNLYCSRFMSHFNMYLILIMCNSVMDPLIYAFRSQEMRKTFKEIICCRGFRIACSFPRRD", "experiment": "Radioligand binding, human melanocortin MC5 membranes, FlashPlate, [125I]-NDP-αMSH", "conditions": "compound at 10 μM, [125I]-NDP-αMSH", "method_in_brief": "as §1"}, "Human Melanocortin (MC3)": {"biological_target": "T8, Human Melanocortin (MC3) (Homo sapiens, UniProt P41968)", "T8 construct": "purchased Perkin Elmer Biosignal", "T8 sequence (P41968 whole entry)": "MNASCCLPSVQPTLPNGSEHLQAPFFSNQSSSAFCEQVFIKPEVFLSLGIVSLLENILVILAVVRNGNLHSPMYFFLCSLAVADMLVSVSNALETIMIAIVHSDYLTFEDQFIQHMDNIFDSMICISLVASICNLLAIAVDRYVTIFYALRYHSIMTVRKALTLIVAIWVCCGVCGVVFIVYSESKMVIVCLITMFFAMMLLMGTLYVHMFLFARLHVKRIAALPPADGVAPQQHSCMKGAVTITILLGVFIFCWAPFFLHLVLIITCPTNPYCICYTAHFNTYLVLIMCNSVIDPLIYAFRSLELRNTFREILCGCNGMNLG", "experiment": "Radioligand binding, human melanocortin MC3 membranes, FlashPlate, [125I]-NDP-αMSH", "conditions": "compound at 10 μM, [125I]-NDP-αMSH", "method_in_brief": "as §1"}, "Human neurokinin (NK1)": {"biological_target": "T9, Human neurokinin (NK1) (Homo sapiens, UniProt P25103)", "T9 construct": "purchased Perkin Elmer Biosignal", "T9 sequence (P25103 whole entry)": "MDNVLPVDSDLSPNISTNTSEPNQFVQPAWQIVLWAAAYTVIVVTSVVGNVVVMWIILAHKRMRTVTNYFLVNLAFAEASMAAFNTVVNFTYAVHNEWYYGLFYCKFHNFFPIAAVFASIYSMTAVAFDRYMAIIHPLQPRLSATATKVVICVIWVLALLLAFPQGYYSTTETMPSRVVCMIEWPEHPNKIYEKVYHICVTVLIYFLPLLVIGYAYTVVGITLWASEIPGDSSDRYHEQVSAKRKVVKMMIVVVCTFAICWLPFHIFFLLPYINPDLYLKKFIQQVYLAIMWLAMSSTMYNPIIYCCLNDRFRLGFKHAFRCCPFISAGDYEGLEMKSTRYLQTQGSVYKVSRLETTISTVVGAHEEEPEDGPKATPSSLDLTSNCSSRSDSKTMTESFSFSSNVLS", "experiment": "Radioligand binding, human neurokinin NK1 membranes, filtration, [125I]-Substance P", "conditions": "compound at 10 μM, [125I]-Substance P", "method_in_brief": "as §2"}, "Human opioid (ORL1)": {"biological_target": "T10, Human opioid (ORL1) (Homo sapiens, UniProt P41146)", "T10 construct": "purchased Perkin Elmer Biosignal", "T10 sequence (P41146 whole entry)": "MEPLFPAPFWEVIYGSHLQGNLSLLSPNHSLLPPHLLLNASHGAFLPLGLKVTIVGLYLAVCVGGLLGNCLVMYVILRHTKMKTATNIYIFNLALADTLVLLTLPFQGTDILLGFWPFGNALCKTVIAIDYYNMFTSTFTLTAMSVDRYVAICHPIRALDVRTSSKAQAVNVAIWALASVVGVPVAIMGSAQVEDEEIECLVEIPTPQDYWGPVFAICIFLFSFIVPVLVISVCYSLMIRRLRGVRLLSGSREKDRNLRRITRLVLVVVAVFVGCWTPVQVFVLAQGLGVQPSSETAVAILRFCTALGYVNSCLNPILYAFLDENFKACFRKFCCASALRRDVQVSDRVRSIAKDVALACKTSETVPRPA", "experiment": "Radioligand binding, human opioid ORL1 membranes, FlashPlate, [125I]-Nociceptin", "conditions": "compound at 10 μM, [125I]-Nociceptin", "method_in_brief": "as §1"}, "Mouse urotensin (mUR2)": {"biological_target": "T11, Mouse urotensin (mUR2) (Mus musculus, UniProt Q8VIH9)", "T11 construct": "purchased Perkin Elmer Biosignal", "T11 sequence (Q8VIH9 1-385)": "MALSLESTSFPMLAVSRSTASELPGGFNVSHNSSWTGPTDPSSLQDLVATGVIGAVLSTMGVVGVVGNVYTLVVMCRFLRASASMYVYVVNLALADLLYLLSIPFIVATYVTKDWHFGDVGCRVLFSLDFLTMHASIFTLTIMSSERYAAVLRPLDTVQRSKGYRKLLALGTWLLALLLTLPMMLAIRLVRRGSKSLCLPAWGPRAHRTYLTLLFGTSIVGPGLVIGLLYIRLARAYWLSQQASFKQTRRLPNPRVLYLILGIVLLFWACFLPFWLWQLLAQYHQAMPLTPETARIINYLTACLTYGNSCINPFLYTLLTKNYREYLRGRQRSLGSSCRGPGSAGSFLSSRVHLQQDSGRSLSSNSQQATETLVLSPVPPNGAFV", "experiment": "Radioligand binding, mouse urotensin mUR2 membranes, FlashPlate, [125I]-Urotensin II", "conditions": "compound at 10 μM, [125I]-Urotensin II", "method_in_brief": "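Cloned mouse urotensin (mUR2) receptor membranes from Perkin Elmer Biosignal were immobilized in FlashPlate microplates using a proprietary coating. Each well got 19.5 μl buffer, then 0.5 μl of DMSO, reference ligand, or compound. Adding 5 μl of [125I]-Urotensin II, diluted to 5× final concentration in binding buffer, started binding. Plates were sealed with TopSeal-A and incubated 1 hour at room temperature in the dark. Wells were counted for 30 seconds each on a TopCount after a 60-second delay, and percentage inhibition was calculated.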"}}}
{"smiles": "CO[C@H]1[C@H](O)[C@@H](COCc2ccc(Cl)cc2)OC(OCc2ccccc2)[C@@H]1NC(=O)CCCNC(=N)N", "note": "(stereo partly shown) [compound 93]", "values": [{"measurement": "A7 radioligand binding, percentage inhibition", "setting": "Human μ-opioid (MOP)", "value": "+ (“+” indicates greater than 50% inhibition at 10 μM)"}, {"measurement": "A1 radioligand binding, percentage inhibition", "setting": "Human δ-opioid (DOP)", "value": "− (“−” indicates less than 50% inhibition at 10 μM)"}, {"measurement": "A2 radioligand binding, percentage inhibition", "setting": "Human κ-Opioid (KOP)", "value": "− (“−” indicates less than 50% inhibition at 10 μM)"}, {"measurement": "A6 radioligand binding, percentage inhibition", "setting": "[1]; [125I]-S36057", "value": "− (“−” indicates less than 50% inhibition at 10 μM)"}, {"measurement": "A9 radioligand binding, percentage inhibition", "setting": "[2]", "value": "− (“−” indicates less than 50% inhibition at 10 μM)"}, {"measurement": "A4 radioligand binding, percentage inhibition", "setting": "Human Melanocortin (MC4)", "value": "− (“−” indicates less than 50% inhibition at 10 μM)"}, {"measurement": "A5 radioligand binding, percentage inhibition", "setting": "Human melanocortin (MC5)", "value": "+ (“+” indicates greater than 50% inhibition at 10 μM)"}, {"measurement": "A3 radioligand binding, percentage inhibition", "setting": "Human Melanocortin (MC3)", "value": "− (“−” indicates less than 50% inhibition at 10 μM)"}, {"measurement": "A8 radioligand binding, percentage inhibition", "setting": "Human neurokinin (NK1)", "value": "+ (“+” indicates greater than 50% inhibition at 10 μM)"}, {"measurement": "A10 radioligand binding, percentage inhibition", "setting": "Human opioid (ORL1)", "value": "− (“−” indicates less than 50% inhibition at 10 μM)"}, {"measurement": "A11 radioligand binding, percentage inhibition", "setting": "Mouse urotensin (mUR2)", "value": "− (“−” indicates less than 50% inhibition at 10 μM)"}]}
{"smiles": "N=C(N)NCC(=O)NC1C(OCc2ccc(-c3ccccc3)cc2)OC(COCc2ccccc2)C(O)C1OCc1ccc2ccccc2c1", "note": "(stereo not shown) [compound 403]", "values": [{"measurement": "A7: inhibition of radioligand binding", "setting": "Human μ-opioid (MOP); human MOP membranes", "value": "− (“−” indicates less than 50% inhibition at 10 μM)"}, {"measurement": "A1: inhibition of radioligand binding", "setting": "Human δ-opioid (DOP); human DOP membranes", "value": "− (“−” indicates less than 50% inhibition at 10 μM)"}, {"measurement": "A2: inhibition of radioligand binding", "setting": "Human κ-Opioid (KOP); human KOP membranes", "value": "− (“−” indicates less than 50% inhibition at 10 μM)"}, {"measurement": "A6: inhibition of radioligand binding", "setting": "[1]; [125I]-S36057, human MCH1 membranes", "value": "+ (“+” indicates greater than 50% inhibition at 10 μM)"}, {"measurement": "A9: inhibition of radioligand binding", "setting": "[2]; human NPY-Y1 membranes", "value": "− (“−” indicates less than 50% inhibition at 10 μM)"}, {"measurement": "A4: inhibition of radioligand binding", "setting": "Human Melanocortin (MC4); human MC4 membranes", "value": "+ (“+” indicates greater than 50% inhibition at 10 μM)"}, {"measurement": "A5: inhibition of radioligand binding", "setting": "Human melanocortin (MC5); human MC5 membranes", "value": "+ (“+” indicates greater than 50% inhibition at 10 μM)"}, {"measurement": "A3: inhibition of radioligand binding", "setting": "Human Melanocortin (MC3); human MC3 membranes", "value": "+ (“+” indicates greater than 50% inhibition at 10 μM)"}, {"measurement": "A8: inhibition of radioligand binding", "setting": "Human neurokinin (NK1); human NK1 membranes", "value": "+ (“+” indicates greater than 50% inhibition at 10 μM)"}, {"measurement": "A10: inhibition of radioligand binding", "setting": "Human opioid (ORL1); human ORL1 membranes", "value": "+ (“+” indicates greater than 50% inhibition at 10 μM)"}, {"measurement": "A11: inhibition of radioligand binding", "setting": "Mouse urotensin (mUR2); mouse mUR2 membranes", "value": "− (“−” indicates less than 50% inhibition at 10 μM)"}]}
